Test results published in patent publication US20230055237A1, “COMPOUNDS AND METHODS FOR THE TREATMENT OF CYSTIC FIBROSIS” (Flatley Discovery Lab, LLC, priority 2019, published 2023).

Target: T1, CFTR (Homo sapiens, UniProt P13569, DEL508-508)
T1 construct: Primary CF airway epithelial cells were obtained from the UNC Cystic Fibrosis Tissue Procurement and Cell Culture Core; host or cells: primary CF airway epithelial cells, differentiated at the air-liquid interface
Assay: Equivalent current assay in primary CF airway epithelial cells (NAUC, combination with 1st site corrector FDL169 or VX-809)
Assay type: cell-based
Conditions: 37° C., 24 h

[1] = test compound 1 μM in combination with 1st site corrector VX-809 (3 μM)
[2] = test compound 3 μM in combination with 1st site corrector VX-809 (3 μM)
[3] = test compound 10 μM in combination with 1st site corrector VX-809 (3 μM)
[4] = test compound 1 μM in combination with 1st site corrector FDL169 (3 μM)
[5] = test compound 3 μM in combination with 1st site corrector FDL169 (3 μM)
[6] = test compound 10 μM in combination with 1st site corrector FDL169 (3 μM)

T1 sequence (P13569 with tags, fused parts or gaps DEL508-508): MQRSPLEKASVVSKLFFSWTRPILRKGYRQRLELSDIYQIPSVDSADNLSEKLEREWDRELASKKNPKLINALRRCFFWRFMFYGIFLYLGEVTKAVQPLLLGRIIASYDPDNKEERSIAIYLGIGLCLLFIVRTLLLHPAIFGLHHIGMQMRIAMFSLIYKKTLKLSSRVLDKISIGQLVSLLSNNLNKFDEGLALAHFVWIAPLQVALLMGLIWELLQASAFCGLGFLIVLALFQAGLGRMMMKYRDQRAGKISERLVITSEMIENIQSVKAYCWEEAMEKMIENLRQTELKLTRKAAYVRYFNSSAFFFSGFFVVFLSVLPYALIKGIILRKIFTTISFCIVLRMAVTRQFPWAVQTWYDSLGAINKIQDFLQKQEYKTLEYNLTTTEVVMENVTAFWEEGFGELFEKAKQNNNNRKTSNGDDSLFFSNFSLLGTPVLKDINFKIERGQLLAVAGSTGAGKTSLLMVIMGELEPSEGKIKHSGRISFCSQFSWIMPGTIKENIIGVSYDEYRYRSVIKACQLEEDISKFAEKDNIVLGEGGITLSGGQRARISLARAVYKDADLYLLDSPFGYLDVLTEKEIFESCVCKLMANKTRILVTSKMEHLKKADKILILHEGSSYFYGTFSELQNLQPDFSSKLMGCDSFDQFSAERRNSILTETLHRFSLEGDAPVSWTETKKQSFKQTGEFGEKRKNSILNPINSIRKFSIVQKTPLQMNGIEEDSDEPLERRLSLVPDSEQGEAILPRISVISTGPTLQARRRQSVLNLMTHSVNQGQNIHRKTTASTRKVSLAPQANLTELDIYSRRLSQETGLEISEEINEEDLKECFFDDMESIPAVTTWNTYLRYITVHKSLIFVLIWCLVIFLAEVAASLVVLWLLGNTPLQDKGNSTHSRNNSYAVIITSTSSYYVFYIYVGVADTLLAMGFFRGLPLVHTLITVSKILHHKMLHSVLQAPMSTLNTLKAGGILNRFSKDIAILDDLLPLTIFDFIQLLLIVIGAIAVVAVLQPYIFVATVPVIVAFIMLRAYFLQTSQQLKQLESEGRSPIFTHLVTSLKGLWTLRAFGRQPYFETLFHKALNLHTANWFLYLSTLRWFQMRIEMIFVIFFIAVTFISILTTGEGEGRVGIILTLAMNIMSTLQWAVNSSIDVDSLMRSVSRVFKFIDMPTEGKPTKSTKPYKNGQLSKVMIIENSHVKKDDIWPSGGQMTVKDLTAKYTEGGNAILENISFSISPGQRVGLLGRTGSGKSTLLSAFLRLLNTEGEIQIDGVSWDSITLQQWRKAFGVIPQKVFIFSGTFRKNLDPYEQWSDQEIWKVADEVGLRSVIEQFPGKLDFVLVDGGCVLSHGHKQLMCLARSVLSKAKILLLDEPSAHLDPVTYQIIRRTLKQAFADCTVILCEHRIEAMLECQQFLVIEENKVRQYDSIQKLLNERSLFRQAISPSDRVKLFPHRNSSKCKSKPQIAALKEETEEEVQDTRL

Row | SMILES | Nauc @ 1 μM [1] | Nauc @ 3 μM [2] | Nauc @ 10 μM [3] | Nauc @ 1 μM [4] | Nauc @ 3 μM [5] | Nauc @ 10 μM [6]
1 | C[C@]1(O)C[C@@H]2[C@H](C(=O)Nc3cc(Cl)cc(Cl)c3)[C@H](C(=O)NO)[C@@]3(C(=O)Nc4c(Cl)cc(Cl)cc43)N2C1 [Example 245, (1′R,2′S,6′S,7a′R)-5,7-dichloro-N1′-(3,5-dichlorophenyl)-N2′,6′-dihydroxy-6′-methyl-2-oxo-1′,2′,5′,6′,7′,7a′-hexahydrospiro[indoline-3,3′-pyrrolizine]-1′,2′-dicarboxamide] | + (NAUC “+” refers to an observed NAUC <140% of positive control) | ++ (NAUC “++” refers to an observed NAUC 170-140% of positive control) | +++ (NAUC “+++” refers to an observed NAUC>170% of positive control) | – | – | –
2 | O=C(Nc1cc(Cl)cc(Cl)c1)C1CN(C(=O)Nc2ccccc2)C2(C(=O)Nc3c(Cl)cc(Cl)cc32)C1C(=O)O (stereo not drawn) [Example 30] | – | + (NAUC “+” refers to an observed NAUC <140% of positive control) | ++ (NAUC “++” refers to an observed NAUC 170-140% of positive control) | – | – | –
3 | O=C(Nc1cc(Cl)cc(Cl)c1)C1C(C(F)(F)c2cccnc2)NC2(C(=O)Nc3c(Cl)cc(Cl)cc32)C1C(=O)O (stereo not drawn) [Example 74.a] | – | – | + (NAUC “+” refers to an observed NAUC <140% of positive control) | – | – | –
4 | CN(C(=O)[C@H]1[C@H]2CC(F)(F)CN2[C@]2(C(=O)N(C)c3c(Cl)cc(Cl)cc32)[C@H]1C(=O)O)c1cc(Cl)cc(Cl)c1 [Example 200, (1′R,2′S,3R,7a′R)-5,7-dichloro-1-((3,5-dichlorophenyl)(methyl)carbamoyl)-6′,6′-difluoro-1-methyl-2-oxo-1′,2′,5′,6′,7′,7a′-hexahydrospiro[indoline-3,3′-pyrrolizine]-2′-carboxylic acid] | +++ (NAUC “+++” refers to an observed NAUC>170% of positive control) | +++ (NAUC “+++” refers to an observed NAUC>170% of positive control) | +++ (NAUC “+++” refers to an observed NAUC>170% of positive control) | ++ (NAUC “++” refers to an observed NAUC 170-140% of positive control) | ++ (NAUC “++” refers to an observed NAUC 170-140% of positive control) | ++ (NAUC “++” refers to an observed NAUC 170-140% of positive control)
5 | O=C(O)[C@H]1[C@@H](C(=O)N(CC2CC2)c2cccc(C(F)(F)F)c2)[C@H]2CC(F)(F)CN2[C@]12C(=O)Nc1c(Cl)cc(Cl)cc12 [Example 163] | – | – | – | +++ (NAUC “+++” refers to an observed NAUC>170% of positive control) | +++ (NAUC “+++” refers to an observed NAUC>170% of positive control) | ++ (NAUC “++” refers to an observed NAUC 170-140% of positive control)
6 | O=C(Nc1cc(Cl)cc(Cl)c1)C1C2CCCN2C2(C(=O)Nc3c(Cl)cc(Cl)cc32)C1C(=O)O (stereo not drawn) [Example 15] | – | +++ (NAUC “+++” refers to an observed NAUC>170% of positive control) | +++ (NAUC “+++” refers to an observed NAUC>170% of positive control) | – | – | –
7 | O=C(Nc1cc(Cl)cc(Cl)c1)C1C2N(CCC2(F)F)C2(C(=O)Nc3c(Cl)cc(Cl)cc32)C1C(=O)O (stereo not drawn) [Example 60] | – | +++ (NAUC “+++” refers to an observed NAUC>170% of positive control) | +++ (NAUC “+++” refers to an observed NAUC>170% of positive control) | – | – | –
8 | CN(C(=O)[C@H]1[C@H]2CC(F)(F)CN2C2(C(=O)Nc3c(Cl)cccc32)[C@H]1C(=O)O)c1cc(Cl)cc(Cl)c1 (stereo partly drawn) [Example 104] | – | – | – | – | – | + (NAUC “+” refers to an observed NAUC <140% of positive control)
9 | CC(C)(C)C(C)(C)CN(C(=O)[C@H]1[C@H]2C[C@](C)(O)CN2[C@]2(C(=O)Nc3c(Cl)cc(Cl)cc32)[C@H]1C(=O)O)c1cc(Cl)cc(Cl)c1 [Example 96] | – | – | – | +++ (NAUC “+++” refers to an observed NAUC>170% of positive control) | +++ (NAUC “+++” refers to an observed NAUC>170% of positive control) | + (NAUC “+” refers to an observed NAUC <140% of positive control)
10 | CN1C(=O)[C@]2(c3cc(Cl)cc(Cl)c31)[C@@H](C(=O)O)[C@@H](C(=O)N(CC(C)(C)C)c1cc(Cl)cc(Cl)c1)[C@H]1CC(F)(F)CN12 [Example 207] | – | – | – | ++ (NAUC “++” refers to an observed NAUC 170-140% of positive control) | ++ (NAUC “++” refers to an observed NAUC 170-140% of positive control) | –
11 | CC(C)(C)c1cccc(C2(CNC(=O)[C@H]3[C@H]4CC(F)(F)CN4C4(C(=O)Nc5c(Cl)cc(Cl)cc54)[C@H]3C(=O)O)CC2)c1 (stereo partly drawn) [Example 294] | + (NAUC “+” refers to an observed NAUC <140% of positive control) | +++ (NAUC “+++” refers to an observed NAUC>170% of positive control) | +++ (NAUC “+++” refers to an observed NAUC>170% of positive control) | – | – | –
12 | CN(C(=O)[C@H]1[C@H]2CC(F)(F)CN2[C@]2(C(=O)Nc3c(Cl)cc(Cl)cc32)[C@H]1C(=O)O)c1cc(Cl)cc(Cl)c1F (single isomer, unassigned) [Example 265b] | + (NAUC “+” refers to an observed NAUC <140% of positive control) | + (NAUC “+” refers to an observed NAUC <140% of positive control) | + (NAUC “+” refers to an observed NAUC <140% of positive control) | – | – | –
13 | O=C(Nc1cc(Cl)cc(Cl)c1)C1C(C(F)(F)c2ccc(C(F)(F)F)cc2)NC2(C(=O)Nc3c(Cl)cc(Cl)cc32)C1C(=O)O (stereo not drawn) [Example 73.b] | – | – | + (NAUC “+” refers to an observed NAUC <140% of positive control) | – | – | –
14 | O=C(O)[C@H]1[C@@H](C(=O)N(CC2CCCC2)c2cc(Cl)cc(Cl)c2)[C@H]2CC(F)(F)CN2[C@]12C(=O)Nc1c(Cl)cc(Cl)cc12 [Example 145] | – | – | – | +++ (NAUC “+++” refers to an observed NAUC>170% of positive control) | +++ (NAUC “+++” refers to an observed NAUC>170% of positive control) | +++ (NAUC “+++” refers to an observed NAUC>170% of positive control)
15 | O=C(Nc1cc(C(F)(F)F)ccn1)C1C2CCCN2C2(C(=O)Nc3c(Cl)cc(Cl)cc32)C1C(=O)O (stereo not drawn) [Example 10] | – | ++ (NAUC “++” refers to an observed NAUC 170-140% of positive control) | ++ (NAUC “++” refers to an observed NAUC 170-140% of positive control) | – | – | –
16 | CN(C(=O)[C@H]1[C@H]2CCCCN2[C@]2(C(=O)Nc3c(Cl)cc(Cl)cc32)[C@H]1C(=O)O)c1cc(Cl)cc(Cl)c1 (racemic) [Example 219, rac-(1′R,2′S,3R,8a′R)-5,7-dichloro-1′-((3,5-dichlorophenyl)(methyl)carbamoyl)-2-oxo-1′,5′,6′,7′,8′,8a′-hexahydro-2′H-spiro[indoline-3,3′-indolizine]-2′-carboxylic acid] | – | – | – | ++ (NAUC “++” refers to an observed NAUC 170-140% of positive control) | + (NAUC “+” refers to an observed NAUC <140% of positive control) | –
17 | O=C(O)[C@H]1[C@@H](C(=O)N(c2cc(Cl)cc(Cl)c2)C2CC(O)C2)[C@H]2CC(F)(F)CN2[C@]12C(=O)Nc1c(Cl)cc(Cl)cc12 (stereo partly drawn) [Example 159] | – | – | – | + (NAUC “+” refers to an observed NAUC <140% of positive control) | + (NAUC “+” refers to an observed NAUC <140% of positive control) | –
18 | Cc1ccc(C(F)(F)C2NC3(C(=O)Nc4c(Cl)cc(Cl)cc43)C(C(=O)O)C2C(=O)Nc2cc(Cl)cc(Cl)c2)cc1 (stereo not drawn) [Example 71.a] | – | – | +++ (NAUC “+++” refers to an observed NAUC>170% of positive control) | – | – | –
